We go through 30 molecules from US11613531B2, “Inhibitors of RHO associated coiled-coil containing protein kinase” (Kadmon Corporation, LLC, priority 2017, dated 2023).

Each structure is given as a SMILES string. “And” between values parts separate entries of the source, which are not always exact repeats. Equal values may be shown once. Read-outs that look alike come from different tables or passages of the source. Where only a bound is given, the exact number is not on record here.

The target of test [1] is Recombinant ROCK2 (amino acids 1-552) (Homo sapiens (Human), UniProt O75116). Description: Z′-Lyte kinase assay, ROCK2. The test is classed as biochemical. The conditions noted are these: for inhibition at 1 µM: 1 μM compound, read-out: ROCK2 % inh. @ [conc]. A digest of the protocol:
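Recombinant human ROCK1 (aa 1-535) or ROCK2 (aa 1-552) activity read by Z′-Lyte kinase assay. Percent inhibition at 1 μM compound was normalized to DMSO control; IC50 from 9-point 2-fold serial dilutions by nonlinear regression.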

Test [2] relates to ppMlc (T18/S19) levels in A7R5 cells. Description: A7R5 in-cell ELISA (pMLC). It counts as cell-based, Rat. The conditions noted are these: for inhibition at 10 µM / IC50 / inhibition at 1 µM: Rattus norvegicus; for inhibition at 10 µM / pMLC % inh A7R5 @ [conc]: 10 μM compound; for inhibition at 10 µM / inhibition at 1 µM: read-out: pMLC % inh A7R5 @ [conc]; for inhibition at 1 µM: 1 μM compound. A digest of the protocol: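 A7R5 rat aortic smooth muscle cells seeded 24 h, then treated 90 min with a 9-point 2-fold compound dilution series. Fixed cells probed for ppMlc (T18/S19) by colorimetric in-cell ELISA; cellular IC50 from nonlinear regression curve fit.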
A general note: An ELISA detects its analyte on a solid surface through an enzyme-linked reagent.

[3] abbreviates: A7R5, A7R5 cells, ppMlc (T18/S19).
The mark [4] stands for this setting: 9 points 2-fold serial dilution.

Usually IC50 stands for the concentration that inhibits the measured activity by half.

Chain of Recombinant ROCK2 (amino acids 1-552) (O75116 1-552): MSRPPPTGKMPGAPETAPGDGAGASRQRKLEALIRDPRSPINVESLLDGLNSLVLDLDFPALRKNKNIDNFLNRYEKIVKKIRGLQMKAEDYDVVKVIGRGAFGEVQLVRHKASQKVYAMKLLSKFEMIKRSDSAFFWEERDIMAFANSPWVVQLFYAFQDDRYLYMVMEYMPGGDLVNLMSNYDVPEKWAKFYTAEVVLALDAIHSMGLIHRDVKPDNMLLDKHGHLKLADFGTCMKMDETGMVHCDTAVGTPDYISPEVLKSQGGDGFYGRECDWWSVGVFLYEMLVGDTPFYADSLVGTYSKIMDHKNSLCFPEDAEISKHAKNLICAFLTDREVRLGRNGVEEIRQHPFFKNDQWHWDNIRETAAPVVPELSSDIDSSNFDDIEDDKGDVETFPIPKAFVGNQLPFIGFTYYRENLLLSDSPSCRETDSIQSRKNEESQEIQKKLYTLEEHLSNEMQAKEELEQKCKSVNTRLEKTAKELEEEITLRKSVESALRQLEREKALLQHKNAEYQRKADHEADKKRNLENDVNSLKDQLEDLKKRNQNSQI

With `CCC1CCN(c2ncc(Cl)c(Nc3ccc4[nH]ncc4c3)n2)CCN1` (centres unmarked) [Example 188, N-(5-chloro-2-(5-ethyl-1,4-diazepan-1-yl)pyrimidin-4-yl)-1H-indazol-5-amine], the inhibition at 1 µM in test [1] is 44.9%. Moreover, in test [2] (A7R5, A7R5 cells), the inhibition at 10 µM is 47.9%.

Regarding `CCC1CN(c2ncc(Cl)c(Nc3ccc4[nH]ncc4c3)n2)CCN1` (centres unmarked) [Example 190, N-(5-chloro-2-(3-ethylpiperazin-1-yl)pyrimidin-4-yl)-1H-indazol-5-amine], the inhibition at 1 µM in test [1] is 41%. For the same molecule, in test [2] (A7R5, A7R5 cells), the inhibition at 10 µM stood at 45.9%.

On to `CC1CCN(c2ncc(Cl)c(Nc3ccc4[nH]ncc4c3)n2)CCN1` (centres unmarked) [Example 191, N-(5-chloro-2-(5-methyl-1,4-diazepan-1-yl)pyrimidin-4-yl)-1H-indazol-5-amine], for which the inhibition at 1 µM in test [1] turned out to be 67%. For the same molecule, the inhibition at 10 µM in test [2] (A7R5, A7R5 cells) amounted to 50.6%. In test [2] (setting [3]), the IC50 came out at 1850 nM.

For `CC1CNCCN(c2ncc(Cl)c(Nc3ccc4[nH]ncc4c3)n2)C1` (centres unmarked) [Example 193, N-(5-chloro-2-(6-methyl-1,4-diazepan-1-yl)pyrimidin-4-yl)-1H-indazol-5-amine], the inhibition at 1 µM was 84.4% in test [1] and 32.5% in test [2] (A7R5, A7R5 cells). Moreover, the IC50 in test [1] (setting [4]) worked out at 0.282 µM; in test [2] (setting [3]), 788 nM.

As for `Clc1cnc(N2CC3CCC(C2)N3)nc1Nc1ccc2[nH]ncc2c1` [Example 195, N-(2-(3,8-diazabicyclo[3.2.1]octan-3-yl)-5-chloropyrimidin-4-yl)-1H-indazol-5-amine], the inhibition at 1 µM in test [1] was 66%; in test [2] (A7R5, A7R5 cells), -3.1%. The IC50 in test [1] (setting [4]) was found to be 0.405 µM.

For `Cc1nc(N2CCNCC2)nc(Nc2ccc3[nH]ncc3c2)c1C` [Example 197, N-(5,6-dimethyl-2-(piperazin-1-yl)pyrimidin-4-yl)-1H-indazol-5-amine], the IC50 came out at 0.437 µM in test [1] (setting [4]) and 581 nM in test [2] (setting [3]). Also, the inhibition at 10 µM in test [2] (A7R5, A7R5 cells) turned out to be 53.8%.

As for `c1cc(Nc2ccc3[nH]ncc3c2)nc(N2CC3CC(C2)N3)n1` [Example 199, N-(2-(3,6-diazabicyclo[3.1.1]heptan-3-yl)pyrimidin-4-yl)-1H-indazol-5-amine], the IC50 was 0.151 µM in test [1] (setting [4]) and 525 nM in test [2] (setting [3]). The inhibition at 10 µM in test [2] (A7R5, A7R5 cells) is 49.6%.

Turning to `Cc1cc(Nc2ccc3[nH]ncc3c2)nc(N2CCNC3(CC3)C2)n1` [Example 212, N-(6-methyl-2-(4,7-diazaspiro[2.5]octan-7-yl)pyrimidin-4-yl)-1H-indazol-5-amine], the inhibition at 1 µM in test [1] came to 91.9%; in test [2] (A7R5, A7R5 cells), 16.1%.

Regarding `c1cc(Nc2ccc3[nH]ncc3c2)nc(N2CC3CCC(C2)N3)n1` [Example 229, N-(2-(3,8-diazabicyclo[3.2.1]octan-3-yl)pyrimidin-4-yl)-1H-indazol-5-amine], in test [1] (setting [4]), the 50% inhibitory concentration (IC50) is 0.077 µM. In addition, the inhibition at 10 µM in test [2] (A7R5, A7R5 cells) stood at 81%.

Consider `c1ccc(CNC2CCCN(c3nccc(Nc4ccc5[nH]ncc5c4)n3)C2)cc1` (centres unmarked) [Example 234, N-(2-(3-(benzylamino)piperidin-1-yl)pyrimidin-4-yl)-1H-indazol-5-amine], for which the IC50 in test [1] came out at 1.8 µM. In test [2] (A7R5, A7R5 cells), the inhibition at 10 µM amounted to 55.6%.

As to `CCC1CNCCN1c1nccc(Nc2ccc3[nH]ncc3c2)n1` (centres unmarked) [Example 235, N-(2-(2-ethylpiperazin-1-yl)pyrimidin-4-yl)-1H-indazol-5-amine], the inhibition at 1 µM in test [1] worked out at 94.4%. Also, the IC50 in test [1] (setting [4]) worked out at 0.054 µM; in test [2] (setting [3]) it was 510 nM.

`CC1CCNCCN1c1nccc(Nc2ccc3[nH]ncc3c2)n1` (centres unmarked) [Example 240, N-(2-(7-methyl-1,4-diazepan-1-yl)pyrimidin-4-yl)-1H-indazol-5-amine]: the inhibition at 1 µM in test [1] came to 84.5%. The inhibition at 10 µM in test [2] (A7R5, A7R5 cells) is 78.1%. Moreover, the IC50 in test [2] (setting [3]) was determined as 1110 nM.

Take `CCC1CNCCCN1c1nccc(Nc2ccc3[nH]ncc3c2)n1` (centres unmarked) [Example 241, N-(2-(2-ethyl-1,4-diazepan-1-yl)pyrimidin-4-yl)-1H-indazol-5-amine]: the inhibition at 1 µM in test [1] was determined as 85.2%. The inhibition at 10 µM in test [2] (A7R5, A7R5 cells) was 81%. In test [2] (setting [3]), the IC50 was 954 nM.

Take `COc1cccc(CN(C)C2CCCN(c3nccc(Nc4ccc5[nH]ncc5c4)n3)C2)c1` (centres unmarked) [Example 242, N-(2-(3-((3-methoxybenzyl)(methyl)amino)piperidin-1-yl)pyrimidin-4-yl)-1H-indazol-5-amine]: the IC50 in test [1] came to 0.747 µM. Besides, in test [2] (A7R5, A7R5 cells), the inhibition at 10 µM was found to be 41.2%.

`COc1ccccc1NC1CCCN(c2nccc(Nc3ccc4[nH]ncc4c3)n2)C1` (centres unmarked) [Example 244, N-(2-(3-((2-methoxyphenyl)amino)piperidin-1-yl)pyrimidin-4-yl)-1H-indazol-5-amine]: in test [1], the IC50 was above 10 µM. Moreover, the inhibition at 10 µM in test [2] (A7R5, A7R5 cells) came to 0.8%.

For `COc1ccc(N[C@@H]2CCN(c3nccc(Nc4ccc5[nH]ncc5c4)n3)C2)cc1` [Example 246, (R)—N-(2-(3-((4-methoxyphenyl)amino)pyrrolidin-1-yl)pyrimidin-4-yl)-1H-indazol-5-amine], in test [1] (concentration not given), the “ROCK2 % inh. @ [conc]” value is 0%. In test [2] (A7R5, A7R5 cells), the inhibition at 10 µM came to 1.8%.

For the molecule `N[C@H]1CCN(c2nccc(Nc3ccc(-c4cn[nH]c4)cc3)n2)C1` [Example 254, (S)—N-(4-(1H-pyrazol-4-yl)phenyl)-2-(3-aminopyrrolidin-1-yl)pyrimidin-4-amine], the IC50 in test [1] stood at 1.23 µM. Moreover, in test [2] (A7R5, A7R5 cells), the inhibition at 10 µM was 16.2%.

`OC1CC2CCC(C1)N2c1nccc(Nc2ccc(-c3cn[nH]c3)cc2)n1` (centres unmarked) [Example 259, 8-(4-((4-(1H-pyrazol-4-yl)phenyl)amino)pyrimidin-2-yl)-8-azabicyclo[3.2.1]octan-3-ol]: the IC50 in test [1] was above 10 µM. Further, the inhibition at 10 µM in test [2] (A7R5 cells) was 6.48%.

Turning to `Cc1cnc(N2CCCNCC2)nc1Nc1ccc(-c2cn[nH]c2)cc1` [Example 261, N-(4-(1H-pyrazol-4-yl)phenyl)-2-(1,4-diazepan-1-yl)-5-methylpyrimidin-4-amine], the inhibition at 1 µM in test [1] is 74%. Besides, the inhibition at 10 µM in test [2] (A7R5, A7R5 cells) came to 86%. The IC50 in test [2] (setting [3]) is 1880 nM.

For `c1cc(-c2cn[nH]c2)ccc1Nc1nc(N2CCCNCC2)nc2c1CSC2` [Example 263, N-(4-(1H-pyrazol-4-yl)phenyl)-2-(1,4-diazepan-1-yl)-5,7-dihydrothieno[3,4-d]pyrimidin-4-amine], the inhibition at 1 µM in test [1] was determined as 101%. For the same molecule, in test [2] (A7R5, A7R5 cells), the inhibition at 10 µM was 82%. In test [2] (setting [3]), the IC50 stood at 1390 nM.

As for `c1cc2nc(N3CCCNCC3)nc(Nc3ccc(-c4cn[nH]c4)cc3)c2s1` [Example 264, N-(4-(1H-pyrazol-4-yl)phenyl)-2-(1,4-diazepan-1-yl)thieno[3,2-d]pyrimidin-4-amine], the inhibition at 1 µM in test [1] amounted to 92.8%. In addition, the IC50 in test [1] (setting [4]) amounted to 0.03 µM; in test [2] (setting [3]), 514 nM. In addition, in test [2] (A7R5, A7R5 cells), the inhibition at 10 µM came out at 60.2%.

As for `Cc1cc(Nc2ccc(-c3cn[nH]c3)cc2)nc(N2CCCNCC2)n1` [Example 265, N-(4-(1H-pyrazol-4-yl)phenyl)-2-(1,4-diazepan-1-yl)-6-methylpyrimidin-4-amine], the inhibition at 1 µM in test [1] amounted to 71.2%. Moreover, in test [2] (A7R5, A7R5 cells), the inhibition at 10 µM amounted to 80%. For the same molecule, the IC50 in test [2] (setting [3]) came out at 1370 nM.

Take `COc1cnc(N2CCCNCC2)nc1Nc1ccc(-c2cn[nH]c2)cc1` [Example 267, N-(4-(1H-pyrazol-4-yl)phenyl)-2-(1,4-diazepan-1-yl)-5-methoxypyrimidin-4-amine]: in test [1], the inhibition at 1 µM came to 52.3%. Besides, in test [2] (A7R5, A7R5 cells), the inhibition at 10 µM amounted to 70%.

Turning to `COc1cccc(C2CCN(c3nccc(Nc4ccc(-c5cn[nH]c5)cc4)n3)C2)c1` (centres unmarked) [Example 269, N-(4-(1H-pyrazol-4-yl)phenyl)-2-(3-(3-methoxyphenyl)pyrrolidin-1-yl)pyrimidin-4-amine], the IC50 in test [1] is 1.65 µM. Further, the “pMLC % inh A7R5 @ [conc]” value in test [2] (A7R5 cells) is −5.7% and −7.2%.

Take `c1ccc(C2CCN(c3nccc(Nc4ccc(-c5cn[nH]c5)cc4)n3)C2)cc1` (centres unmarked) [Example 270, N-(4-(1H-pyrazol-4-yl)phenyl)-2-(3-phenylpyrrolidin-1-yl)pyrimidin-4-amine]: the IC50 in test [1] is 1.43 µM. Besides, the “pMLC % inh A7R5 @ [conc]” value in test [2] (A7R5 cells) is −6.9% and −8.9%.

Consider `Clc1cnc(N2CC3CC(C2)N3)nc1Nc1ccc2[nH]ncc2c1` [Example 280, N-(2-(3,6-diazabicyclo[3.1.1]heptan-3-yl)-5-chloropyrimidin-4-yl)-1H-indazol-5-amine], for which the IC50 in test [1] was 0.263 µM. Further, the inhibition at 1 µM in test [2] (A7R5, A7R5 cells) worked out at 26.6%.

Take `CN1CCc2nc(N3C4CCC3CNC4)nc(Nc3ccc(-c4cn[nH]c4)cc3)c2C1` [Example 303, N-(4-(1H-pyrazol-4-yl)phenyl)-2-(3,8-diazabicyclo[3.2.1]octan-8-yl)-6-methyl-5,6,7,8-tetrahydropyrido[4,3-d]pyrimidin-4-amine]: the IC50 in test [1] is 0.257 µM; in test [2] (A7R5, A7R5 cells) it was above 10000 nM.

As to `c1cc(-c2ccc(Nc3nc(N4C5CCC4CNC5)nc4c3CNC4)cc2)ccn1` [Example 306, 2-(3,8-diazabicyclo[3.2.1]octan-8-yl)-N-(4-(pyridin-4-yl)phenyl)-6,7-dihydro-5H-pyrrolo[3,4-d]pyrimidin-4-amine], the IC50 was above 1 µM in test [1] and above 10000 nM in test [2] (A7R5, A7R5 cells).

On to `c1cc(Nc2ccnc(N3CCNCC3)n2)cc(-c2cn[nH]c2)c1` [Example 347, N-(3-(1H-pyrazol-4-yl)phenyl)-2-(piperazin-1-yl)pyrimidin-4-amine], for which the IC50 in test [1] is above 10 µM. For the same molecule, the inhibition at 10 µM in test [2] (A7R5, A7R5 cells) was found to be 17%.

With `Nc1ccc(-c2ccc(Nc3ccnc(N4CCNCC4)n3)cc2)cn1` [Example 350, N-(4-(6-aminopyridin-3-yl)phenyl)-2-(piperazin-1-yl)pyrimidin-4-amine], the IC50 in test [1] stood at 3.7 µM. In addition, in test [2] (A7R5, A7R5 cells), the inhibition at 10 µM is 14.8%.
